Several values for one entry are separate records, joined by “and”; a condition that tells them apart may be missing. Equal entries are not always repeated. Values belong to the molecule of their own block, whether it stands above or below them.
Experiments:
human DIC (SLC25A10) = target: T1, human DIC (SLC25A10) (Homo sapiens, UniProt Q9UBX3); assay: Differential scanning fluorimetry (nanoDSF) thermal stability shift assay; type: binding; settings: 1 mM nucleotide, pH 6.0, single repeats (source data Fig. 4A)
T1 construct: His8 (N, cleaved yes); Factor Xa protease cleavage site (N, cleaved yes); made in house; host or cells: Saccharomyces cerevisiae protease-deficient strain BJ2186
T1 sequence (Q9UBX3 1-287): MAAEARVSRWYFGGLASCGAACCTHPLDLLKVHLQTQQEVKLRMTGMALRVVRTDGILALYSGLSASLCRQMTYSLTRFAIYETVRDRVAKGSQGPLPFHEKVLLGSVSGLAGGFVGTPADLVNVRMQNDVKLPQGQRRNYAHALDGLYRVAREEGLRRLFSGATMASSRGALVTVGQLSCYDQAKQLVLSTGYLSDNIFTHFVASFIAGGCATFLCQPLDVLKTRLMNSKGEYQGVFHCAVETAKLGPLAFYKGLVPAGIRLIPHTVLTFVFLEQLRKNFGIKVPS
Description: (§1) UCP1 is phylogenetically related to mitochondrial dicarboxylate carriers, gaining thermogenic properties as a later evolutionary development (Hughes et al, [2009]; Robinson et al, [2008]). The mitochondrial dicarboxylate carrier (DIC, SLC25A10) and oxoglutarate carrier (OGC, SLC25A11) are most closely related to UCP1 (Gaudry et al, [2019]; Hughes et al, [2009]) and share many residues involved in nucleotide binding in UCP1, such as the arginine triplet at the contact points, R92 and Q85 (Jones et al, [2024]). Given the similarity of the central cavity of UCP1, OGC and DIC, we tested whether the dicarboxylate carriers have the ability to bind nucleotides. For this purpose, we purified human DIC and OGC, and tested whether nucleotides were able to generate a thermostability shift, as observed for their physiological substrates (Pyrihová et al, [2024]). However, all tested nucleotides caused a negligible shift with both DIC or OGC at all pH values tested between 6.0 and 8.0 (Fig. 4A; Appendix Fig. S5). Thus, despite having many residues in common (Fig. 4B–D), UCP1 has evolved to have a few specific residues that allow high-affinity binding of nucleotides without a strong selection for nucleobase.
(§2) Differential scanning fluorimetry (nanoDSF) (Alexandrov et al, [2008]) was carried out with 2 µg UCP1, DIC or OGC protein (100 mM MES/HEPES, pH range 6.0–8.0, 25 mM NaCl, 1 mM TCEP, 0.01% lauryl maltose neopentyl glycol and 0.01 mg/mL tetraoleoyl cardiolipin) and, when required, 1 mM nucleotide, as indicated. The proteins have the following number of tryptophans: UCP1 (two); OGC (two); DIC (one). The samples were loaded into nanoDSF-grade standard glass capillaries. The temperature was increased by […] every minute from 25 to 95 °C, the intrinsic fluorescence was measured in a Prometheus NT.48 nanoDSF device, and the apparent Tm was calculated with the PR.ThermControl software (NanoTemper Technologies).

human OGC (SLC25A11) = target: T2, human OGC (SLC25A11) (Homo sapiens, UniProt Q02978); assay: as above; type: binding; settings: 1 mM nucleotide, pH 6.0, single repeats (source data Fig. 4A)
T2 construct: His8 (N, cleaved yes); Factor Xa protease cleavage site (N, cleaved yes); made in house; host or cells: Saccharomyces cerevisiae strain W303.1B
T2 sequence (Q02978 1-314): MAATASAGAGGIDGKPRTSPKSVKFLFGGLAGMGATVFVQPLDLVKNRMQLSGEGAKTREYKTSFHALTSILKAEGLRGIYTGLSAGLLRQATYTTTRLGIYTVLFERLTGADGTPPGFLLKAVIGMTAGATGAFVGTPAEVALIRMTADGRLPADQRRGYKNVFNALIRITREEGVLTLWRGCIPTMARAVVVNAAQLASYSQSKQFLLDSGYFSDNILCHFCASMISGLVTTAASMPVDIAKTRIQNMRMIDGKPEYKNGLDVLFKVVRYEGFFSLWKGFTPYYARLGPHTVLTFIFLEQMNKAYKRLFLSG
Description: as §1, §2

UCP1 [1] = target: T3, UCP1 (Homo sapiens, UniProt P25874); assay: Isothermal titration calorimetry of nucleotide binding; design: isotherm data point (enthalpy change per injection): unit not given here; settings: for isotherm data point (enthalpy change per injection): representative isotherm;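 for all read-outs here: purified human UCP1 in cacodylate buffer with lauryl maltose neopentyl glycol and cardiolipin, titrated with nucleotides, isotherms fitted by one-site model yielding ΔH, Kd and stoichiometry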
T3 construct: His8 (N, cleaved yes); Factor Xa protease cleavage site (N, cleaved yes); made in house; host or cells: Saccharomyces cerevisiae strain W303.1B
T3 sequence (P25874 1-307): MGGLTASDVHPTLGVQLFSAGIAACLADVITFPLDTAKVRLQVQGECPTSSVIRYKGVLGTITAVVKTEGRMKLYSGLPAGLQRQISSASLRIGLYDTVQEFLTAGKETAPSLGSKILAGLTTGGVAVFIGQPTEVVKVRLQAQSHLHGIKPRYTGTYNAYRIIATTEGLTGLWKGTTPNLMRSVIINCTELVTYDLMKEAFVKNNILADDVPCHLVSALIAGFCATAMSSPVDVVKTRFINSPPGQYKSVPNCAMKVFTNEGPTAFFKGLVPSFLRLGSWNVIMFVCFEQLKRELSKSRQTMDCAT

UCP1 [2] = target: T3, UCP1; assay: Liposome reconstitution and proton conductance assay (pyranine fluorescence); type: biochemical; settings: UCP1 proteoliposomes, 200 µM oleic acid alone, 2.5 µM valinomycin; single reconstitutions
[3] = target: T4, human uncoupling protein 1 (human, UniProt P25874); assay: cryo-EM structure; UCP1, PMb65 and PMb71 mixed stoichiometrically, overnight at 4 °C; complex separated by SEC (20 mM MES pH 6.0, 150 mM NaCl, 0.02% lauryl maltose neopentyl glycol, 0.02 mg/mL tetraoleoyl cardiolipin, 1 mM TCEP); 2 mM UTP and 2 mM D-maltose added; 3.03 Å; settings: both partners purified
T4 construct: human uncoupling protein 1 (UCP1, SLC25A7), Uniprot P25874; Detergent-solubilised, with tetraoleoyl cardiolipin; also called UCP1; SLC25A7; source: Saccharomyces cerevisiae W303.1B, purified from mitochondria (Ni Sepharose, on-column Factor Xa cleavage); not shown: His8, N-terminal, cleaved

change in apparent melting temperature (ΔTm) of hDIC (human DIC (SLC25A10)): 1.0 and 0.5 and 0.8
change in apparent melting temperature (ΔTm) of hOGC (human OGC (SLC25A11)): 0.7 and 0.4
binding affinity to UCP1 (in words) (UCP1 [1]; ITC): highest binding affinities
Kd (UCP1 [1]; ITC, pH 6.0, 20 °C, mean ± standard deviation of three biological repeats (Fig. 2A-E)): 880 ± 120 nM
Kd (UCP1 [1]; ITC, single biological repeats (source data Fig. 2F)): 810 nM and 800 nM and 1020 nM
isotherm data point (enthalpy change per injection) (UCP1 [1]; Molar ratio (Nucleotide/UCP) 0.120417, pH 6.0, 20 °C): -35.3409
isotherm data point (enthalpy change per injection) (UCP1 [1]; Molar ratio (Nucleotide/UCP) 0.428528, pH 6.0, 20 °C): -34.4517
isotherm data point (enthalpy change per injection) (UCP1 [1]; Molar ratio (Nucleotide/UCP) 0.491383, pH 6.0, 20 °C): -33.5364
isotherm data point (enthalpy change per injection) (UCP1 [1]; Molar ratio (Nucleotide/UCP) 0.554656, pH 6.0, 20 °C): -34.076
isotherm data point (enthalpy change per injection) (UCP1 [1]; Molar ratio (Nucleotide/UCP) 0.618348, pH 6.0, 20 °C): -33.0757
isotherm data point (enthalpy change per injection) (UCP1 [1]; Molar ratio (Nucleotide/UCP) 0.682464, pH 6.0, 20 °C): -31.8617
isotherm data point (enthalpy change per injection) (UCP1 [1]; Molar ratio (Nucleotide/UCP) 0.811976, pH 6.0, 20 °C): -26.1456
isotherm data point (enthalpy change per injection) (UCP1 [1]; Molar ratio (Nucleotide/UCP) 0.877378, pH 6.0, 20 °C): -22.2535
isotherm data point (enthalpy change per injection) (UCP1 [1]; Molar ratio (Nucleotide/UCP) 0.943214, pH 6.0, 20 °C): -16.8687
isotherm data point (enthalpy change per injection) (UCP1 [1]; Molar ratio (Nucleotide/UCP) 1.0762, pH 6.0, 20 °C): -7.301
isotherm data point (enthalpy change per injection) (UCP1 [1]; Molar ratio (Nucleotide/UCP) 1.14336, pH 6.0, 20 °C): -4.354
isotherm data point (enthalpy change per injection) (UCP1 [1]; Molar ratio (Nucleotide/UCP) 1.21096, pH 6.0, 20 °C): -2.46
isotherm data point (enthalpy change per injection) (UCP1 [1]; Molar ratio (Nucleotide/UCP) 1.41647, pH 6.0, 20 °C): -1.066
isotherm data point (enthalpy change per injection) (UCP1 [1]; Molar ratio (Nucleotide/UCP) 1.69692, pH 6.0, 20 °C): -0.2462
isotherm data point (enthalpy change per injection) (UCP1 [1]; Molar ratio (Nucleotide/UCP) 1.76819, pH 6.0, 20 °C): 0.1511
isotherm data point (enthalpy change per injection) (UCP1 [1]; Molar ratio (Nucleotide/UCP) 1.91217, pH 6.0, 20 °C): -0.4754
isotherm data point (enthalpy change per injection) (UCP1 [1]; Molar ratio (Nucleotide/UCP) 1.98488, pH 6.0, 20 °C): 0.1711
Molecule: Nc1ncnc2c1ncn2[C@@H]1O[C@H](COP(=O)(O)OP(=O)(O)OP(=O)(O)O)[C@@H](O)[C@H]1O [ATP, adenosine triphosphate]

Molecule: CCCCCCCC/C=C\CCCCCCCC(=O)O [OA, oleic acid]
Proton influx rate (UCP1 [2]): 908.51 nmol H+/min and 699.43 nmol H+/min and 609.97 nmol H+/min

binding result [3]: binds
B1: Pro-macrobody PMb71 (VHH)
VHH: QVQLVESGGGLVQAGDSLRLSCAASGLTLKNYAMGWFRQAPGKEHEFVAVISWSGSGTSYADSVEGRFTISRDNAKNTAFLQMSSLKPEDTAVYYCAARDGGYGSRWPDEYTYWGQGTQVTVPP
notes: llama nanobody CA9871; Expressed from the vector pBXNPHM3 (Addgene 110099); also called CA9871; source: E. coli MC1061, purified (Ni-NTA, 3C cleavage, Strep-Tactin XT); not shown: His-tagged MBP, N-terminal, cleaved
